The source of these data is article PMC7918497, “Proposed Mechanism for the Antitrypanosomal Activity of Quercetin and Myricetin Isolated from Hypericum afrum Lam.: Phytochemistry, In Vitro Testing and Modeling Studies” (Molecules, 2021).

Where two headings read alike, the source gives them in different places.

Data set [1] can be described thus: General cytotoxicity against THP1 cells. In kind it is cell-based, human. The following applies: human, THP1 cells.
Data set [2] deals with L. donovani promastigotes. Put plainly: In vitro antileishmanial assay, L. donovani promastigotes (Alamar Blue). In kind it is cell-based, Leishmania donovani. The following applies: for IC50: read-out: L. Donovani Promastigote IC50; for IC90: read-out: L. Donovani Promastigote IC90. How it is done:
(§1) IC50 and IC90 values were computed from the dose–response curves using XLfit software. DFMO (difluoromethylornithine) was used as the positive control. The antiprotozoal activities of the H. afrum fractions and isolated compounds were evaluated in vitro against L. donovani promastigotes, axenic amastigotes and intracellular amastigotes in THP1 cells. The fractions and some isolated compounds were also evaluated against T. brucei trypomastigote forms.
On the technique in general: Alamar Blue is a resazurin reagent that responds to reducing activity.

For data set [3], the system named is Trypanosoma brucei trypomastigotes. Put plainly: In vitro antitrypanosomal assay, T. brucei trypomastigotes (Alamar Blue). In kind it is cell-based. How it is done:
as §1

Data set [4] relates to L. donovani intracellular amastigotes in THP1 cells. Put plainly: In vitro antileishmanial assay, intracellular amastigotes in THP1 cells (parasite rescue and transformation assay). Type of data set: cell-based, Leishmania donovani. How it is done:
as §1

The subject of data set [5] is L. donovani axenic amastigotes. Put plainly: In vitro antileishmanial assay, L. donovani axenic amastigotes (Alamar Blue). Type of data set: cell-based, Leishmania donovani. How it is done:
as §1

In the next data set the test system is TbHK1. Details: method as in PMID 20971104. The following applies: read-out: TbHK1 inhibition IC50; cited from earlier work.
The next data set has as its system THP1 cells. The experiment in a line: General cytotoxicity against THP1 cells. Type of data set: cell-based, human. The following applies: Table 1.
[6] abbreviates: Leishmania donovani, isolated compounds, Table 1, tested range 0.4–10 ug/mL.
The mark [7] stands for this setting: Trypanosoma brucei, isolated compounds.
Where [8] appears, read: Leishmania donovani, THP-1, Table 1, read-out: L. Donovani Amastigote/THP1 IC50.
[9] abbreviates: Leishmania donovani, THP-1, Table 1, read-out: L. Donovani Amastigote/THP1 IC90.
Setting [10] is: Leishmania donovani, Table 1, read-out: L. Donovani Amastigote IC50.
Where [11] appears, read: Leishmania donovani, Table 1, read-out: L. Donovani Amastigote IC90.
Setting [12] is: Leishmania donovani, fractions, Table 2.
Setting [13] is: Leishmania donovani, THP-1, Table 2, read-out: L. Donovani Amastigote/THP IC50.
The mark [14] stands for this setting: Leishmania donovani, THP-1, Table 2, read-out: L. Donovani Amastigote/THP IC90.
The mark [15] stands for this setting: Leishmania donovani, Table 2, read-out: L. Donovani Amastigote IC50.
[16] abbreviates: Leishmania donovani, Table 2, read-out: L. Donovani Amastigote IC90.
[17] abbreviates: isolated compounds, Table 1, tested range 0.4–10 ug/mL.

Turning to `O=c1c(O)c(-c2cc(O)c(O)c(OC3OC(CO)C(O)C(O)C3O)c2)oc2cc(O)cc(O)c12` [Compound 7, myricetin-3’-O-β-D-glucopyranoside], the IC50 in data set [1] (Table 1), in data set [2] (setting [6]), in data set [3] (setting [7]), in data set [4] (setting [8]) and in data set [5] (setting [10]) was above 10 µM each time. In addition, the IC90 in data set [1] (Table 1), in data set [2] (setting [6]), in data set [3] (setting [7]), in data set [4] (setting [9]) and in data set [5] (setting [11]) was above 10 µM each time.

Turning to `O=c1c(O[C@@H]2O[C@H](CO)[C@H](O)[C@H](O)[C@H]2O)c(-c2ccc(O)c(O)c2)oc2cc(O)cc(O)c12` [Compound 5, hyperoside], the IC50 in data set [1] (Table 1), in data set [2] (setting [6]), in data set [3] (setting [7]), in data set [4] (setting [8]) and in data set [5] (setting [10]) was above 10 µM each time. In addition, the IC90 in data set [1] (Table 1), in data set [2] (setting [6]), in data set [3] (setting [7]), in data set [4] (setting [9]) and in data set [5] (setting [11]) was above 10 µM in each case.

As to `O=c1c(O)c(-c2cc(O)c(O)c(O)c2)oc2cc(O)cc(O)c12` [Compound 4, myricetin], the IC50 in data set [1] (Table 1) was above 10 µM; in data set [2] (setting [6]) it was above 10 µM; in data set [3] (setting [7]) it was 5.71 µM; in data set [4] (setting [8]), above 10 µM; in the data set on TbHK1, 48.9 µM; in data set [5] (setting [10]), above 10 µM. Moreover, the IC90 in data set [1] (Table 1) was above 10 µM; in data set [2] (setting [6]), above 10 µM; in data set [3] (setting [7]), 7.97 µM; in data set [4] (setting [9]), above 10 µM; in data set [5] (setting [11]), above 10 µM.

Consider `C[C@@H]1[C@H](O)[C@@H](C)/C=C/C=C/C=C/C=C/C=C/C=C/C=C/[C@H](O[C@@H]2O[C@H](C)[C@@H](O)[C@H](N)[C@@H]2O)C[C@@H]2O[C@](O)(C[C@@H](O)C[C@@H](O)[C@H](O)CC[C@@H](O)C[C@@H](O)CC(=O)O[C@H]1C)C[C@H](O)[C@H]2C(=O)O` [AMB, Amphotericin, reference compound], for which the IC50 in data set [1] (Table 1) was above 2 µM; in data set [1] (Table 2), above 2 µg/mL; in data set [2] (setting [12]) it was 0.138 µg/mL; in data set [4] (setting [13]), 0.187 µg/mL; in data set [5] (setting [15]) it was 0.304 µg/mL. The IC90 was above 2 µM in data set [1] (Table 1); above 2 µg/mL in data set [1] (Table 2); 0.188 µg/mL in data set [2] (setting [12]); 0.264 µg/mL in data set [4] (setting [14]); 0.362 µg/mL in data set [5] (setting [16]).

As to `O=c1c(O)c(-c2ccc(O)c(O)c2)oc2cc(O)cc(O)c12` [Compound 1, quercetin], the IC50 in data set [1] (Table 1) was above 10 µM; in data set [2] (setting [6]) it was above 10 µM; in data set [3] (setting [7]) it was 7.52 µM; in data set [4] (setting [8]), above 10 µM; in the data set with TbHK1 it was 4.1 µM; in data set [5] (setting [10]), above 10 µM. For the same compound, the IC90 is above 10 µM in data set [1] (Table 1); above 10 µM in data set [2] (setting [6]); 9.76 µM in data set [3] (setting [7]); above 10 µM in data set [4] (setting [9]); above 10 µM in data set [5] (setting [11]).

Regarding `N=C(N)c1ccc(OCCCCCOc2ccc(C(=N)N)cc2)cc1` [PENT, Pentamidine, reference compound], the IC50 was above 10 µM in data set [1] (Table 1); above 10 µg/mL in data set [1] (Table 2); 1.48 µg/mL in data set [2] (setting [12]); 0.001 µg/mL in data set [3] (Trypanosoma brucei, fractions); 0.001 µM in data set [3] (setting [7]); 1.16 µg/mL in data set [4] (setting [13]). Also, in data set [5] (setting [15]), the IC50 was 9.58 µg/mL. Besides, the IC90 in data set [1] (Table 1) is above 10 µM; in data set [1] (Table 2), above 10 µg/mL; in data set [2] (setting [12]), 2.38 µg/mL; in data set [3] (Trypanosoma brucei, fractions) it was 0.002 µg/mL; in data set [3] (setting [7]) it was 0.002 µM; in data set [4] (setting [14]), 5.59 µg/mL. The IC90 in data set [5] (setting [11]) was above 10 µM; in data set [5] (setting [16]) it was above 10 µg/mL.

In the case of `NCCC[C@](N)(C(=O)O)C(F)F` [DFMO, α-difluoromethylornithine, reference compound], in data set [3] (fractions), the “T. Brucei IC50” value is given as 3.634 µg/mL and the “T. Brucei IC90” value is 8.804 µg/mL. In data set [3] (isolated compounds), this compound gave an IC50 of 3.63 µM and an IC90 of 8.8 µM.

Consider myricitrin [Compound 2], for which the IC50 was above 10 µM in the data set on THP1 cells; above 10 µM in data set [2] (setting [17]); above 10 µM in data set [3] (isolated compounds); above 10 µM in data set [4] (Table 1, read-out: L. Donovani Amastigote/THP1 IC50); above 10 µM in data set [5] (Table 1, read-out: L. Donovani Amastigote IC50). The IC90 in the data set on THP1 cells is above 10 µM; in data set [2] (setting [17]), above 10 µM; in data set [3] (isolated compounds), above 10 µM; in data set [4] (Table 1, read-out: L. Donovani Amastigote/THP1 IC90), above 10 µM; in data set [5] (Table 1, read-out: L. Donovani Amastigote IC90), above 10 µM.

Consider `O=c1c(-c2c(O)cc(O)c3c(=O)cc(-c4ccc(O)cc4)oc23)c(-c2ccc(O)cc2)oc2cc(O)cc(O)c12` [Compound 3, biapigenin], for which the IC50 in data set [1] (Table 1), in data set [2] (setting [6]), in data set [3] (setting [7]), in data set [4] (setting [8]) and in data set [5] (setting [10]) was above 10 µM in each case. The IC90 in data set [1] (Table 1), in data set [2] (setting [6]), in data set [3] (setting [7]), in data set [4] (setting [9]) and in data set [5] (setting [11]) was above 10 µM each time.

In the case of `O=c1c(OC2OC(CO)C(O)C(O)C2O)c(-c2cc(O)c(O)c(O)c2)oc2cc(O)cc(O)c12` [Compound 6, myricetin-3-O-β-D-galactopyranoside], the IC50 in data set [1] (Table 1), in data set [2] (setting [6]), in data set [3] (setting [7]), in data set [4] (setting [8]) and in data set [5] (setting [10]) was above 10 µM each time. Besides, the IC90 in data set [1] (Table 1), in data set [2] (setting [6]), in data set [3] (setting [7]), in data set [4] (setting [9]) and in data set [5] (setting [11]) was above 10 µM throughout.
